Results as given in PMC12476453, “Chemosensation of the pheromone spermine by the olfactory TAAR-like receptor TAAR348” (Cell Discovery, 2025).

Biological target: T1, TAAR348 (Petromyzon marinus, UniProt A0A678XLR1)
T1 construct: TAAR-like GPCR overexpressed in HEK293 cells with Gs BRET2 sensors; cryo-EM complex with Gs (Gαs, Gβ, Gγ), NB35 and ScFv16; construct details only in supplement
T1 sequence (A0A678XLR1 1-348): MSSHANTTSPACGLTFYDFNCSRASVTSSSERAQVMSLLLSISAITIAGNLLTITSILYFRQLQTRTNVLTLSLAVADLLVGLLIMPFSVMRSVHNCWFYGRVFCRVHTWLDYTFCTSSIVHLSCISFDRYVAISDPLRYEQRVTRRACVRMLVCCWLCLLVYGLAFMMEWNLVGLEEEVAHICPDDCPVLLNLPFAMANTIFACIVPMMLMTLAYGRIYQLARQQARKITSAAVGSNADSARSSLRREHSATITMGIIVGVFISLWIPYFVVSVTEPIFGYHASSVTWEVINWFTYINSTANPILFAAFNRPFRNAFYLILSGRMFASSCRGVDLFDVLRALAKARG
Assay: BRET2 G protein trimer dissociation assay (Gs)
Assay type: cell-based

For `NCCCNCCCCNCCCN` [spermine], the EC50 was 155 ± 6.9 nM.
